System: reticulated platelets
Assay: Passive Antibody Transfer Model of ITP (immunothrombocytopenia)
Format: in vivo
Conditions: C57Bl/6NCrI mice, anti-CD41 antibody; daily intraperitoneal 30 μg/kg vs saline
From the text: The Passive Antibody Transfer Model of ITP has been extensively used to understand the progression of chronic ITP and to rapidly evaluate the efficacy of various therapeutics (Neschadim et al., 2015). The model is characterized by a rapid onset of the ITP and clear involvement of phagocytic monocytes in platelet destruction. In addition, it provides a possibility to use self-antigens relevant to the human condition. Depending on the type, quantity, and frequency of the administered antibody it is possible to vary the severity and the persistence of the induced ITP by fine-tuning the rate and the level of platelet decline whereas the repeated administration of the monoclonal antibody simulates chronic human IT.
Female 6-week old C57Bl/6NCrI mice and genetically-modified C57Bl/6NCrI mice with neu1 deficiency (Passive Antibody Transfer Model of ITP, Neschadim et al., 2015) received escalating daily doses (68 μg/kg on the 1st and 2d days, 102 μg/kg on the third day) of anti-CD41 anti-platelet monoclonal mouse antibody (clone MWReg30) by intraperitoneal injection. The reticulated platelets were measured daily for three days by flow cytometric analysis. Control mice (C57B16) received injections of saline. […]

CCCCC(=O)NCC(O)C(O)C1OC(C(=O)O)=CC(O)[C@H]1NC(C)=O (stereo partly drawn) [compound 50, 5-Acetamido-9-pentanamido-2,6-anhydro-3,5-dideoxy-D-glycero-D-galacto-non-2-enonic acid] was tested, and the platelet reduction rate was “lower platelet reduction rates”.

— patent publication US20220110919A1, “METHODS OF MODULATING LEUKOCYTES ACTIVATION AND THROMBOCYTE CLEARANCE WITH INHIBITORS OF SPECIFIC NEURAMINIDASE ISOENZYMES” (The Governors of the University of Alberta, priority 2018, published 2022)
